Results on 26 compounds are retold here after patent US9221809B2 (MERCK SHARP & DOHME CORP., priority 2011, dated 2015).

The structures appear in SMILES notation. Where a name gives a salt, the structure may show the parent alone.

Sequence of IRAK4 (Q9NWZ3 whole entry): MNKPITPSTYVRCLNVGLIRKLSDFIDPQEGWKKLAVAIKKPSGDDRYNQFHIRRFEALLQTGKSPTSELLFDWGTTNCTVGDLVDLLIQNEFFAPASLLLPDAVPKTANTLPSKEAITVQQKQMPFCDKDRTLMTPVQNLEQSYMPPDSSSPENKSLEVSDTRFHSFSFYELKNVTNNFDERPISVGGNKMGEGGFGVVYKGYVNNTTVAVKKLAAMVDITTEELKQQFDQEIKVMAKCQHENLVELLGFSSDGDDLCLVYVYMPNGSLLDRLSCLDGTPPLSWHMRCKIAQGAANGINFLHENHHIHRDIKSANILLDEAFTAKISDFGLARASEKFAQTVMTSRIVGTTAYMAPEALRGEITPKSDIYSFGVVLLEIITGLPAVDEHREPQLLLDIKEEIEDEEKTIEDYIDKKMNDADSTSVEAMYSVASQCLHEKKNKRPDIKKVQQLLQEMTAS

The target in the assay is IRAK4 (Homo sapiens (Human), UniProt Q9NWZ3). The assay can be described thus: IRAK4 kinase activity, IMAP fluorescence polarization assay. As to conditions: 100 μM ATP, 0.5 nM GST tagged IRAK4; read-out: IRAK4 IC50. In kind it is biochemical. The protocol:
The kinase activity of IRAK4 is determined by its ability to catalyze the phosphorylation of a fluorescent polypeptide substrate. The extent of phosphorylation is measured using IMAP technology (Molecular Devices) where the phosphorylated fluorescent substrate binds to the large M(III)-based nanoparticles which reduces the rotational speed of the substrate and thus increases its fluorescent polarization (FP).
Assay Procedure: A 20 μl reaction mixture contains 10 mM TriHCl, pH 7.2, 0.5 nM GST tagged IRAK4 (SignalChem), 100 nM fluorescent peptide substrate (RP7030, Molecular Devices), 100 μM ATP, 1 mM DTT, 1 mM MgCl2, and 0.01% Tween 20. The reaction is initiated by the addition of ATP. After incubation for 30 minutes at 25° C., 60 μl of Progressive IMAP Reagent (Molecular Devices) is added to stop the reaction. Change in RP7030's FP is determined by a FP reader (Analyst HT, LJL BioSystems)
Background: In fluorescence polarisation assays a small probe gives low polarisation when free and higher when bound to something large.
For `C[C@@H]1CC[C@@H](Nc2nc(N3CCOCC3)[nH]c(=O)c2-c2ccc3ccccc3n2)CN1` (racemic) [Example 121, 6-(methylpiperidin-3-yl)amino-2-morpholino-5-(quinolin-2-yl)pyrimidin-4(3H)-one.HCl], the IC50 was 38 nM.

`C[C@H]1CC[C@@H](Nc2nc(N3CCOCC3)[nH]c(=O)c2-c2ccc3ccccc3n2)CN1` (racemic) [Example 122, 6-(methylpiperidin-3-yl)amino-2-morpholino-5-(quinolin-2-yl)pyrimidin-4(3H)-one.HCl]: the IC50 is 541 nM.

As to `C[C@H]1CC[C@@H](Nc2nc(N3CCOCC3)[nH]c(=O)c2-c2nc3ccccc3s2)CN1` (racemic) [Example 123, 5-(benzo[d]thiazol-2-yl)-6((6-methylpiperidin-3-yl)amino)-2-morpholinopyrimidin-4(3H)-one.HCl], the IC50 is 847 nM.

Turning to `C[C@@H]1CC[C@@H](Nc2nc(N3CCOCC3)[nH]c(=O)c2-c2nc3ccccc3s2)CN1` (racemic) [Example 124, 5-(benzo[d]thiazol-2-yl)-6((6-methylpiperidin-3-yl)amino)-2-morpholinopyrimidin-4(3H)-one.HCl], the IC50 was 114 nM.

As for `N[C@@H]1CCCC[C@H]1Nc1cccc2sc(-c3c(N[C@@H]4CCCNC4)nc(N4CCOCC4)[nH]c3=O)nc12` (racemic) [Example 352, 5-(4-[[(trans, rac)-2-aminocyclohexyl]amino]-1,3-benzothiazol-2-yl)-2-(morpholin-4-yl)-6-[[(3R)-piperidin-3-yl]amino]-3,4-dihydropyrimidin-4-one], the concentration for half-maximal inhibition (IC50) came to 5400 nM.

As for `N[C@H]1CCCC[C@H]1Nc1cccc2sc(-c3c(N[C@@H]4CCCNC4)nc(N4CCOCC4)[nH]c3=O)nc12` (racemic) [Example 353, 5-[4-[(cis, rac)-(2-aminocyclohexyl)amino]-1,3-benzothiazol-2-yl]-2-(morpholin-4-yl)-6-[[(3R)-piperidin-3-yl]amino]-3,4-dihydropyrimidin-4-one], the IC50 came out at 24 nM.

With `O=c1[nH]c(NC2CCC2)nc(N[C@@H]2C[C@H](CO)[C@@H](O)[C@H]2O)c1-c1nc2ccccc2s1` [Example 1, 5-(Benzo[d]thiazol-2-yl)-2-(cyclobutylamino)-6-((1R,2S,3R,4R)-2,3-dihydroxy-4-(hydroxymethyl)cyclopentylamino)pyrimidin-4(3H)-one.HCl], the IC50 is 20 nM.

In the case of `Nc1nc(N[C@@H]2C[C@H](CO)[C@@H](O)[C@H]2O)c(-c2nc3ccccc3s2)c(=O)[nH]1` [Example 2, 2-Amino-5-(benzo[d]thiazol-2-yl)-6-((1R,2S,3R,4R)-2,3-dihydroxy-4-(hydroxymethyl)cyclopentylamino)pyrimidin-4(3H)-one.HCl], the IC50 was determined as 694 nM.

With `O=c1[nH]c(NC2CCCC2)nc(N[C@@H]2C[C@H](CO)[C@@H](O)[C@H]2O)c1-c1nc2ccccc2s1` [Example 4, 5-(Benzo[d]thiazol-2-yl)-2-(cyclopentylamino)-6-((1R,2S,3R,4R)-2,3-dihydroxy-4-(hydroxymethyl)cyclopentylamino)pyrimidin-4(3H)-one.HCl], the IC50 was 92 nM.

On to `CC(C)Nc1nc(N[C@@H]2C[C@H](CO)[C@@H](O)[C@H]2O)c(-c2nc3ccccc3s2)c(=O)[nH]1` [Example 5, 5-(Benzo[d]thiazol-2-yl)-6-((1R,2S,3R,4R)-2,3-dihydroxy-4-(hydroxymethyl)cyclopentylamino)-2-(isopropylamino)pyrimidin-4(3H)-one.HCl], for which the IC50 amounted to 151 nM.

As for `O=c1[nH]c(NC2CCCCC2)nc(N[C@@H]2C[C@H](CO)[C@@H](O)[C@H]2O)c1-c1nc2ccccc2s1` [Example 6, 5-(Benzo[d]thiazol-2-yl)-2-(cyclohexylamino)-6-((1R,2S,3R,4R)-2,3-dihydroxy-4-(hydroxymethyl)cyclopentylamino)pyrimidin-4(3H)-one.HCl], the IC50 was 636 nM.

For the compound `O=c1[nH]c(N[C@@H]2C[C@H](CO)[C@@H](O)[C@H]2O)c(-c2nc3ccccc3s2)c(=O)[nH]1` [Example 7, 5-(Benzo[d]thiazol-2-yl)-6-((1R,2S,3R,4R)-2,3-dihydroxy-4-(hydroxymethyl)cyclopentylamino)pyrimidine-2,4(1H,3H)-dione.HCl], the IC50 is 1490 nM.

`O=c1[nH]c(NC2CCOCC2)nc(N[C@@H]2C[C@H](CO)[C@@H](O)[C@H]2O)c1-c1nc2ccccc2s1` [Example 8, 5-(Benzo[d]thiazol-2-yl)-6-((1R,2S,3R,4R)-2,3-dihydroxy-4-(hydroxymethyl)cyclopentylamino)-2-(tetrahydro-2H-pyran-4-ylamino)pyrimidin-4(3H)-one.HCl]: the IC50 was 575 nM.

Regarding `O=c1[nH]c(NC2CC(F)(F)C2)nc(N[C@@H]2C[C@H](CO)[C@@H](O)[C@H]2O)c1-c1nc2ccccc2s1` [Example 9, 5-(Benzo[d]thiazol-2-yl)-2-(3,3-difluorocyclobutylamino)-6-((1R,2S,3R,4R)-2,3-dihydroxy-4-(hydroxymethyl)cyclopentylamino)pyrimidin-4(3H)-one.HCl], the IC50 turned out to be 324 nM.

For the compound `CS(=O)(=O)N1CCC(Nc2nc(N[C@@H]3C[C@H](CO)[C@@H](O)[C@H]3O)c(-c3nc4ccccc4s3)c(=O)[nH]2)CC1` [Example 10, 5-(Benzo[d]thiazol-2-yl)-6-((1R,2S,3R,4R)-2,3-dihydroxy-4-(hydroxymethyl)cyclopentylamino)-2-(1-(methylsulfonyl)piperidin-4-ylamino)pyrimidin-4(3H)-one.HCl], the half-maximal inhibitory concentration (IC50) was determined as 545 nM.

Consider `O=c1[nH]c(NC2COC2)nc(N[C@@H]2C[C@H](CO)[C@@H](O)[C@H]2O)c1-c1nc2ccccc2s1` [Example 11, 5-(Benzo[d]thiazol-2-yl)-6-((1R,2S,3R,4R)-2,3-dihydroxy-4-(hydroxymethyl)cyclopentylamino)-2-(oxetan-3-ylamino)pyrimidin-4(3H)-one.HCl], for which the IC50 amounted to 892 nM.

Regarding `CS(=O)(=O)N1CCN(c2nc(N[C@@H]3C[C@H](CO)[C@@H](O)[C@H]3O)c(-c3nc4ccccc4s3)c(=O)[nH]2)CC1` [Example 12, 5-(Benzo[d]thiazol-2-yl)-6-((1R,2S,3R,4R)-2,3-dihydroxy-4-(hydroxymethyl)cyclopentylamino)-2-(4-(methylsulfonyl)piperazin-1-yl)pyrimidin-4(3H)-one.HCl], the IC50 was 25 nM.

With `O=c1[nH]c(N2CC3(COC3)C2)nc(N[C@@H]2C[C@H](CO)[C@@H](O)[C@H]2O)c1-c1nc2ccccc2s1` [Example 13, 5-(Benzo[d]thiazol-2-yl)-6-((1R,2S,3R,4R)-2,3-dihydroxy-4-(hydroxymethyl)cyclopentylamino)-2-(2-oxa-6-azaspiro[3.3]heptan-6-yl)pyrimidin-4(3H)-one.HCl], the IC50 was 8.9 nM.

Turning to `CS(=O)(=O)N1CC2(CN(c3nc(N[C@@H]4C[C@H](CO)[C@@H](O)[C@H]4O)c(-c4nc5ccccc5s4)c(=O)[nH]3)C2)C1` [Example 14, 5-(Benzo[d]thiazol-2-yl)-6-((1R,2S,3R,4R)-2,3-dihydroxy-4-(hydroxymethyl)cyclopentylamino)-2-(6-(methylsulfonyl)-2,6-diazaspiro[3.3]heptan-2-yl)pyrimidin-4(3H)-one.HCl], the IC50 is 5.6 nM.

With `O=c1[nH]c(OC2CCC2)nc(N[C@@H]2C[C@H](CO)[C@@H](O)[C@H]2O)c1-c1nc2ccccc2s1` [Example 15, 5-(Benzo[d]thiazol-2-yl)-2-cyclobutoxy-6-((1R,2S,3R,4R)-2,3-dihydroxy-4-(hydroxymethyl)cyclopentylamino)pyrimidin-4(3H)-one.HCl], the IC50 was found to be 1690 nM.

For `O=c1[nH]c(N2CC3(CNC3)C2)nc(N[C@@H]2C[C@H](CO)[C@@H](O)[C@H]2O)c1-c1nc2ccccc2s1` [Example 16, 5-(Benzo[d]thiazol-2-yl)-6-((1R,2S,3R,4R)-2,3-dihydroxy-4-(hydroxymethyl)cyclopentylamino)-2-(2,6-diazaspiro[3.3]heptan-2-yl)pyrimidin-4(3H)-one.HCl], the IC50 came to 6.5 nM.

For the compound `O=c1[nH]c(N2CCOCC2)nc(N[C@@H]2C[C@H](CO)[C@@H](O)[C@H]2O)c1-c1ccc2ccccc2n1` [Example 18, 6-((1R,2S,3R,4R)-2,3-Dihydroxy-4-(hydroxymethyl)cyclopentylamino)-2-morpholino-5-(quinolin-2-yl)pyrimidin-4(3H)-one.HCl], the IC50 turned out to be 9.5 nM.

On to `O=c1[nH]c(N2CCCCC2)nc(N[C@@H]2C[C@H](CO)[C@@H](O)[C@H]2O)c1-c1ccc2ccccc2n1` [Example 19, 6-((1R,2S,3R,4R)-2,3-Dihydroxy-4-(hydroxymethyl)cyclopentylamino)-2-(piperidin-1-yl)-5-(quinolin-2-yl)pyrimidin-4(3H)-one.HCl], for which the IC50 was 23 nM.

In the case of `O=c1[nH]c(NC2CCC2)nc(N[C@@H]2C[C@H](CO)[C@@H](O)[C@H]2O)c1-c1ccc2ccccc2n1` [Example 20, 2-(Cyclobutylamino)-6-((1R,2S,3R,4R)-2,3-dihydroxy-4-(hydroxymethyl)cyclopentylamino)-5-(quinolin-2-yl)pyrimidin-4(3H)-one.HCl], the IC50 is 19 nM.

For `O=c1[nH]c(NC2CCC2)nc(N[C@@H]2C[C@H](CO)[C@@H](O)[C@H]2O)c1-c1ccccn1` [Example 21, 2-(Cyclobutylamino)-6-((1R,2S,3R,4R)-2,3-dihydroxy-4-(hydroxymethyl)cyclopentylamino)-5-(pyridin-2-yl)pyrimidin-4(3H)-one.HCl], the IC50 was determined as 590 nM.

As for `O=c1[nH]c(NC2CCC2)nc(N[C@@H]2C[C@H](CO)[C@@H](O)[C@H]2O)c1-c1nccs1` [Example 22, 2-(Cyclobutylamino)-6-((1R,2S,3R,4R)-2,3-dihydroxy-4-(hydroxymethyl)cyclopentylamino)-5-(thiazol-2-yl)pyrimidin-4(3H)-one.HCl], the IC50 came to 1110 nM.

For orientation: IC50 means the midpoint of a concentration-inhibition curve.
